Experimental data reported in patent publication US20070037736A1, “Therapeutic composition comprising the KAL protein and use of the KAL protein for the treatment of retinal, renal, neuronal and neural injury” (INSTITUT PASTEUR, priority 1997, published 2007).

What was measured:
Assay type in all cases: cell-based, rat
[1] = system: PC12 cells; assay: Adhesion and inhibition assay, colorimetric; conditions: data not shown
Method: (§1) Adhesion assays were performed as described in (à compléter) with some modifications. Coating with the various molecules, at the indicated concentrations in 0.5 ml PBS, was performed in plastic 24-well multidishes (Nunclon™) at 37° C. (1 h or overnight).The cells were then washed three times with PBS, coating blocked with 1% heat-inactivated BSA (à compléter) for at least 1 h at 37° C., followed by three PBS washes, before addition of the cells (10^6 cells per ml in serum-free medium containing 0.1% heat-inactivated BSA). In standard experiments, purified KAL was applied at 3 μg/ml. Other substrates were used as control, fibronectin ([…]) and poly-L-lysine (100 μg/ml).
(§2) Cells were incubated for 30 min to 1 h on coated wells. Medium was then aspirated and unbound cells removed by one wash with PBS. The adherent cells were fixed with […] paraformaldehyde (PFA) in PBS and stained with 0.1% crystal violet. Quantification of the attached cells was performed using a colorimetric method (à compléter). Data are expressed as the percentage of adherent cells on each tested substrate with reference to poly-L-lysine. Assays in triplicate were repeated in three independent experiments.
Cells were incubated for 5 min at room temperature in HBSS containing 5 mM EDTA, washed once with HBSS and preincubated for 1 h at 4° C. in HBSS containing 0.1% BSA in the absence or in the presence of Ca^++ and/or Mg^++ prior plating.
Heparin, heparan sulfate or chondroitin sulfate (up to 1 mg/ml in PBS) was added in KAL-coated-BSA-saturated wells, and allowed to interact for 2 h at 37° C. After three washings with PBS, CHO-K1or PC12 cells were plated, and incubated as usual.
A 32 aminoacid peptide (32R1-FIG. 24) was synthesized (Syntiem laboratory). Control peptides were C17 (NH2CSLVPTKKKRRKTTDGF-COON) (SEQ ID NO:7) derived from the second fibronectin type III repeat of human KAL and C 16V (NHzCGSYANNNRYGRDPPTSV-000H), (SEQ ID NO:8) derived from the EYA1 protein (a completer). The peptides, at various concentrations (10 to 30 μg/ml), were directly adsorbed on polystyrene microtiter wells (Immulon 4, Nunc). […]

[2] = system: olfactory neurons (line 24); assay: Adhesion and peptide/serum inhibition assay, colorimetric; conditions: for percentage of olfactory neurons (line 24) adherent on substrate: substrate coated to microtiter wells
Method: as §1, §2
A 32 aminoacid peptide (32R1-FIG. 24) was synthesized (Syntiem laboratory). Control peptides were C17 (NH2CSLVPTKKKRRKTTDGF-COON) (SEQ ID NO:7) derived from the second fibronectin type III repeat of human KAL and C 16V (NHzCGSYANNNRYGRDPPTSV-000H), (SEQ ID NO:8) derived from the EYA1 protein (a completer). The peptides, at various concentrations (10 to 30 μg/ml), were directly adsorbed on polystyrene microtiter wells (Immulon 4, Nunc). Adhesion assays were performed as described above.
In peptide inhibition assays, cells were preincubated with the peptides at different concentrations (10 to 100 μg/ml) for 1 h at 4° C., then plated to KAL-coated wells, and incubated for a further 30 min period of time.

[3] = system: olfactory neurons (line 24); assay: Spreading and neurite growth on coated substrates; conditions: mean ± SEM
Method: FIG. 28: Mean neurite length on the different substrates after one hour, two hours and eight hours in vitro. Mean value±SEM. More than 100 neurons were analyzed in each experimental condition.
Cells, in serum-free medium containing 0.1% heat inactivated BSA were seeded on KAL- or laminin-coated wells, and maintained for 20 min to 22 h at 37° C. Adherent cells were fixed, stained with toluidine blue, and photographied with an inverted microscope.

O=C(O)CN(CCN(CC(=O)O)CC(=O)O)CC(=O)O [EDTA]
effect of chelating Ca++ and Mg++ on adhesion of PC12 cells to KAL ([1]; cells incubated with EDTA for 5 minutes prior plating): did not modified the amount of adhering cells

NH2CSLVPTKKKRRKTTDGF-COON [17R2, reference compound]
effect of preincubation with peptide on adhesion to KAL ([2]; 50 μM): had no effect
percentage of olfactory neurons (line 24) adherent on substrate [2]: no adhesion

NHz-RPSRWYQFRVAAVNVHGTRGFTAPSKHFRSSK-000H [32R1]
mean neurite length per olfactory neuron ([3]; eight hours after plating): 63 (±2) μm
mean neurite length per olfactory neuron ([3]; one hour on substrate): 32 (±4) μm
adhesion of PC12 cells on peptide substrate ([1]; compared with olfactory neurons): same results
effect of preincubation with peptide on adhesion to fibronectin and laminin substrates [2]: had no effect
concentration of peptide giving complete inhibition of adhesion to KAL substrate ([2]; cells preincubated with peptide): 26 µM
percentage of olfactory neurons (line 24) adherent on substrate [2]: 80%

NHzCGSYANNNRYGRDPPTSV-000H [C16V, reference compound]
percentage of olfactory neurons (line 24) adherent on substrate [2]: no adhesion
